In one data set the target is T1, CMV polymerase (Human cytomegalovirus, UniProt P08546).
T1 construct: made in house; host or cells: recombinant baculovirus-infected SF-9 cells
Briefly: HCMV polymerase assay, scintillation proximity assay (SPA), modified version. The data set is classed as biochemical. The following applies: modified HCMV polymerase SPA assay: compounds diluted in 100% DMSO, 4.5 mM DTT in polymerase buffer, different lot of CMV polymerase; read-out: CMV polymerase IC50. The method, then:
The HCMV polymerase assay is performed using a scintillation proximity assay (SPA) as described in several references, such as N. D. Cook, et al., Pharmaceutical Manufacturing International, pages 49-53 (1992); K. Takeuchi, Laboratory Practice, September issue (1992); U.S. Pat. No. 4,568,649 (1986); which are incorporated by reference herein. Reactions are performed in 96-well plates. The assay is conducted in 100 μl volume with 5.4 mM HEPES (pH 7.5), 11.7 mM KCl, 4.5 mM MgCl2, 0.36 mg/ml BSA, and 90 nM ^3H-dTTP. Assays are run with and without CHAPS, (3-[(3-Cholamidopropyl)-dimethylammonio]-1-propane-sulfonate) at a final concentration of 2 mM. HCMV polymerase is diluted in enzyme dilution buffer containing 50% glycerol, 250 mM NaCl, 10 mM HEPES (pH 7.5), 100 μg/ml BSA, and 0.01% sodium azide. The HCMV polymerase, which is expressed in recombinant baculovirus-infected SF-9 cells and purified according to literature procedures, is added at 10% (or 10 μl) of the final reaction volume, i.e., 100 μl. Compounds are diluted in 50% DMSO and 10 μl are added to each well. Control wells contain an equivalent concentration of DMSO. Unless noted otherwise, reactions are initiated via the addition of 6 nM biotinylated poly(dA)-oligo(dT) template/primer to reaction mixtures containing the enzyme, substrate, and compounds of interest. Plates are incubated in a 25 C. or 37 C. H2O bath and terminated via the addition of 40 μl/reaction of 0.5 M EDTA (pH 8) per well. Reactions are terminated within the time-frame during which substrate incorporation is linear and varied depending upon the enzyme and conditions used, i.e., 30 min. for HCMV polymerase. Ten μl of streptavidin-SPA beads (20 mg/ml in PBS/10% glycerol) are added following termination of the reaction. Plates are incubated 10 min. at 37 C., then equilibrated to room temperature, and counted on a Packard Topcount. Linear regressions are performed and IC50's are calculated using computer software.
A modified version of the above HCMV polymerase assay is performed as described above, but with the following changes: Compounds are diluted in 100% DMSO until final dilution into assay buffer. In the previous assay, compounds are diluted in 50% DMSO. 4.5 mM dithiotherotol (DTT) is added to the polymerase buffer.

T1 sequence (P08546 whole entry): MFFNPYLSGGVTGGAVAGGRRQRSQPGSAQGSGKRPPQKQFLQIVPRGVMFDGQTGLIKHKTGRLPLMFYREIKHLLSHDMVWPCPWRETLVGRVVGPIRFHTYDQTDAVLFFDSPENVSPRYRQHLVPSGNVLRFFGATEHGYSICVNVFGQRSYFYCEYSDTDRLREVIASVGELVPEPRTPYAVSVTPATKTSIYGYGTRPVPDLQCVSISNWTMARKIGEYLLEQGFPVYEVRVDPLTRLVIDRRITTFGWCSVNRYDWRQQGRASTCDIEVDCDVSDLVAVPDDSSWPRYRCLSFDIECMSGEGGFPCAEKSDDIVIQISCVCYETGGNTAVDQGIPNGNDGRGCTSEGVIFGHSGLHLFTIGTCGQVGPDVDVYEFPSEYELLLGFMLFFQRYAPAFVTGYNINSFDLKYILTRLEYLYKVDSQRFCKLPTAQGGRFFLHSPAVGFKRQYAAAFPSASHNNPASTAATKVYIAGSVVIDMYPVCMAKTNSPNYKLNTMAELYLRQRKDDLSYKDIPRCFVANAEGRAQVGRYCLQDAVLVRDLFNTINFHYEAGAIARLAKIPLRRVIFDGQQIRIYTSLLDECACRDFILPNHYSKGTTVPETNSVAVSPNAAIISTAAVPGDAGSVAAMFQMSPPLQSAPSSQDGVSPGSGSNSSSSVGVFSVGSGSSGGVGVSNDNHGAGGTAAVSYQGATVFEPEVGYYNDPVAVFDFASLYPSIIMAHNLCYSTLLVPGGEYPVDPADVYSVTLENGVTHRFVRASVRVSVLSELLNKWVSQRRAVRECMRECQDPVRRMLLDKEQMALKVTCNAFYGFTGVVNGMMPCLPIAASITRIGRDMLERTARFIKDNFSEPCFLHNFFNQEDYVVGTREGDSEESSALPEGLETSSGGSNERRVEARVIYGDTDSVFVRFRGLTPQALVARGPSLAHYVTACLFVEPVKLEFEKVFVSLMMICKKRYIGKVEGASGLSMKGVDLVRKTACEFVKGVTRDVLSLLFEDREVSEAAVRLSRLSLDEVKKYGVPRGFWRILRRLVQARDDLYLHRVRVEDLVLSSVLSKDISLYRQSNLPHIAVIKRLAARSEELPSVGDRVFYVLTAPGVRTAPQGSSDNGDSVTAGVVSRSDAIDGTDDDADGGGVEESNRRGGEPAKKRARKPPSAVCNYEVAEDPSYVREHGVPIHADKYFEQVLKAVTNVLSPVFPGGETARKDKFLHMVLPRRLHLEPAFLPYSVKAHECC

Take `O=C(NCc1ccc(Cl)cc1)c1cn2c3c(cc(CN4CCOCC4)cc3c1=O)OC(F)(F)C2` [Example 28, N-(4-Chlorobenzyl)-2,2-difluoro-9-(4-morpholinylmethyl)-7-oxo-2,3-dihydro-7H-[1,4]oxazino[2,3,4-ij]quinoline-6-carboxamide]: the melting point was in the range of 213.5 to 216.5 °C. For the same molecule, on CMV polymerase, the IC50 amounted to 600 nM.
The matching figures for `O=C(NCc1ccc(Cl)cc1)c1cn2c3c(cc(CN4CCOCC4)cc3c1=O)OC(c1ccoc1)C2` (stereo not shown) [Example 37, N-(4-Chlorobenzyl)-2-(3-furyl)-9-(morpholin-4-ylmethyl)-7-oxo-2,3-dihydro-7H-[1,4]oxazino[2,3,4-ij]quinoline-6-carboxamide]: 193 to 196 °C and 380 nM.
For `O=C(NCc1ccc(Cl)cc1)c1cn2c3c(cc(CN4CCOCC4)cc3c1=O)OC(c1cc(F)cc(F)c1)C2` (stereo not shown) [Example 39, N-(4-Chlorobenzyl)-2-(3,5-difluorophenyl)-9-(morpholin-4-ylmethyl)-7-oxo-2,3-dihydro-7H-[1,4]oxazino[2,3,4-ij]quinoline-6-carboxamide], in that order: 234 to 236 °C and 330 nM.
With `O=C(NCc1ccc(Cl)cc1)c1cn2c3c(cc(CN4CCOCC4)cc3c1=O)OC(c1ccc3c(c1)OCO3)C2` (stereo not shown) [Example 40, 2-(1,3-Benzodioxol-5-yl)-N-(4-chlorobenzyl)-9-(morpholin-4-ylmethyl)-7-oxo-2,3-dihydro-7H-[1,4]oxazino[2,3,4-ij]quinoline-6-carboxamide], the melting point was in the range of 227 to 231 °C. Besides, the IC50 at CMV polymerase was 330 nM.
On to `O=C(NCc1ccc(Cl)cc1)c1cn2c3c(cc(CN4CCOCC4)cc3c1=O)OC(c1ccc3c(c1)OCCO3)C2` (stereo not shown) [Example 41, N-(4-Chlorobenzyl)-2-(2,3-dihydro-1,4-benzodioxin-6-yl)-9-(morpholin-4-ylmethyl)-7-oxo-2,3-dihydro-7H-[1,4]oxazino[2,3,4-ij]quinoline-6-carboxamide], for which the melting point was in the range of 240 to 243 °C. In addition, the half-inhibitory concentration (IC50) at CMV polymerase is 440 nM.
For `O=C(NCc1ccc(Cl)cc1)c1cn2c3c(cc(CN4CCOCC4)cc3c1=O)OC(c1cccc3c1OCO3)C2` (stereo not shown) [Example 42, 2-(1,3-Benzodioxol-4-yl)-N-(4-chlorobenzyl)-9-(morpholin-4-ylmethyl)-7-oxo-2,3-dihydro-7H-[1,4]oxazino[2,3,4-ij]quinoline-6-carboxamide], in that order: 221 to 225 °C (dec.) and 200 nM.
The matching figures for `COCOc1cc(OCOC)cc(C2Cn3cc(C(=O)NCc4ccc(Cl)cc4)c(=O)c4cc(CN5CCOCC5)cc(c43)O2)c1` (stereo not shown) [Example 43, 2-[3,5-bis(Methoxymethoxy)phenyl]-N-(4-chlorobenzyl)-9-(morpholin-4-ylmethyl)-7-oxo-2,3-dihydro-7H-[1,4]oxazino[2,3,4-ij]quinoline-6-carboxamide]: 187 to 189 °C and 400 nM.
`COCOc1cccc(C2Cn3cc(C(=O)NCc4ccc(Cl)cc4)c(=O)c4cc(CN5CCOCC5)cc(c43)O2)c1OCOC` (stereo not shown) [Example 44, 2-[2,3-bis(Methoxymethoxy)phenyl]-N-(4-chlorobenzyl)-9-(morpholin-4-ylmethyl)-7-oxo-2,3-dihydro-7H-[1,4]oxazino[2,3,4-ij]quinoline-6-carboxamide]: the melting point is 177 to 180 °C. Besides, the IC50 at CMV polymerase stood at 1040 nM.
For `O=C(NCc1ccc(Cl)cc1)c1cn2c3c(cc(CN4CCOCC4)cc3c1=O)OC(c1ccsc1)C2` (stereo not shown) [Example 45, N-(4-Chlorobenzyl)-9-(morpholin-4-ylmethyl)-7-oxo-2-thien-3-yl-2,3-dihydro-7H-[1,4]oxazino[2,3,4-ij]quinoline-6-carboxamide], in that order: 241 to 245 °C (dec.) and 410 nM.
`O=C(NCc1ccc(Cl)cc1)c1cn2c3c(cc(CN4CCOCC4)cc3c1=O)OC1(CCOCC1)C2` [Example 46, N-[(4-Chlorophenyl)methyl]-2,3,5,6-tetrahydro-9′-(4-morpholinylmethyl)-7′-oxospiro[4H-pyran-4,2′(3′H)-[7H]pyrido[1,2,3-de][1,4]benzoxazine]-6′-carboxamide] showed a melting point of 251 to 254 °C. For the same molecule, on CMV polymerase, the concentration for half-maximal inhibition (IC50) is 530 nM.
For the molecule `CC(C)(C)OC(=O)N1CCC2(CC1)Cn1cc(C(=O)NCc3ccc(Cl)cc3)c(=O)c3cc(CN4CCOCC4)cc(c31)O2` [Example 47, 1,1-Dimethylethyl 6-[[[(4-chlorophenyl)methyl]amino]carbonyl]-9′-(4-morpholinylmethyl)-7′-oxospiro[piperidine-4,2′(3′H)-[7H]pyrido[1,2,3-de][1,4]benzoxazine]-1-carboxylate], the melting point is 213 °C (dec.). In addition, the IC50 at CMV polymerase was 830 nM.
Regarding `O=C(NCc1ccc(Cl)cc1)c1cn2c3c(cc(CN4CCOCC4)cc3c1=O)OC1(CCNCC1)C2` [Example 48, N-[(4-Chlorophenyl)methyl]-9′-(4-morpholinylmethyl)-7′-oxospiro[piperidine-4,2′(3′H)-[7H]pyrido[1,2,3-de][1,4]benzoxazine]-6′-carboxamide], the melting point is 246 to 250 °C (dec.). At CMV polymerase, the IC50 is 2150 nM.
As for `CN1CCC2(CC1)Cn1cc(C(=O)NCc3ccc(Cl)cc3)c(=O)c3cc(CN4CCOCC4)cc(c31)O2` [Example 49, N-[(4-Chlorophenyl)methyl]-1-methyl-9′-(4-morpholinylmethyl)-7′-oxospiro[piperidine-4,2′(3′H)-[7H]pyrido[1,2,3-de][1,4]benzoxazine]-6′-carboxamide], the melting point is 234 to 237 °C (dec.). The IC50 on CMV polymerase turned out to be 2330 nM.
For `O=C(NCc1ccc(Cl)cc1)c1cn2c3c(cc(CN4CCOCC4)cc3c1=O)OC1(CCC3(CC1)OCCO3)C2` [Example 50], in that order: above 260 °C and 1170 nM.
As to `COCOCC1(COCOC)Cn2cc(C(=O)NCc3ccc(Cl)cc3)c(=O)c3cc(CN4CCOCC4)cc(c32)O1` [Example 51, N-(4-Chlorobenzyl)-2,2-bis[(methoxymethoxy)methyl]-9-(morpholin-4-ylmethyl)-7-oxo-2,3-dihydro-7H-[1,4]oxazino[2,3,4-ij]quinoline-6-carboxamide], the melting point was in the range of 147 to 149 °C. Further, the IC50 at CMV polymerase was 750 nM.
For `O=C(NCc1ccc(Cl)cc1)c1cn2c3c(cc(CN4CCOCC4)cc3c1=O)OC(CO)(CO)C2` [Example 52, N-(4-Chlorobenzyl)-2,2-bis(hydroxymethyl)-9-(morpholin-4-ylmethyl)-7-oxo-2,3-dihydro-7H-[1,4]oxazino[2,3,4-ij]quinoline-6-carboxamide], in that order: 230 to 233 °C and 810 nM.
For `O=C(NCc1ccc(Cl)cc1)c1cn2c3c(cc(CN4CCOCC4)cc3c1=O)OC1(CCSCC1)C2` [Example 53, N-[(4-Chlorophenyl)methyl]-2′,3′,5′,6′-tetrahydro-9-(4-morpholinylmethyl)-7-oxospiro[7H-pyrido[1,2,3-de]-1,4-benzoxazine-2(3H),4′-[4H]thiopyran]-6-carboxamide], in that order: 147 to 149 °C and 530 nM.
On to `O=C1CCC2(CC1)Cn1cc(C(=O)NCc3ccc(Cl)cc3)c(=O)c3cc(CN4CCOCC4)cc(c31)O2` [Example 54, N-[(4-Chlorophenyl)methyl]-9′-(4-morpholinylmethyl)-4,7′-dioxospiro[cyclohexane-1,2′(3′H)-[7H]pyrido[1,2,3-de][1,4]benzoxazine]-6′-carboxamide], for which the melting point was 249.5 to 252 °C. Also, the IC50 on CMV polymerase stood at 600 nM.
Molecule `O=C(NCc1ccc(Cl)cc1)c1cn2c3c(cc(CN4CCOCC4)cc3c1=O)OC1(CCC(O)CC1)C2` (stereo not shown) [Example 55, N-[(4-Chlorophenyl)methyl]-4-hydroxy-9′-(4-morpholinylmethyl)-7′-oxospiro[cyclohexane-1,2′(3′H)-[7H]pyrido[1,2,3-de][1,4]benzoxazine]-6′-carboxamide] registered a melting point of 229 to 234 °C. The IC50 at CMV polymerase came to 410 nM.
The matching figures for `Cn1ccnc1C1Cn2cc(C(=O)NCc3ccc(Cl)cc3)c(=O)c3cc(CN4CCOCC4)cc(c32)O1` (stereo not shown) [Example 59, N-(4-Chlorobenzyl)-2-(1-methyl-1H-imidazol-2-yl)-9-(morpholin-4-ylmethyl)-7-oxo-2,3-dihydro-7H-[1,4]oxazino[2,3,4-ij]quinoline-6-carboxamide]: above 260 °C and 480 nM.
